Patent US8420675B2, “Aminotetrahydroindazoloacetic acids” (Hoffmann-La Roche Inc., priority 2008, dated 2013)
pIC50: −log10 of the molar value.

Target: T1, human CRTH2 (Homo sapiens, UniProt Q9Y5Y4)
T1 construct: expressed in transfected cells
T1 sequence (Q9Y5Y4 1-395): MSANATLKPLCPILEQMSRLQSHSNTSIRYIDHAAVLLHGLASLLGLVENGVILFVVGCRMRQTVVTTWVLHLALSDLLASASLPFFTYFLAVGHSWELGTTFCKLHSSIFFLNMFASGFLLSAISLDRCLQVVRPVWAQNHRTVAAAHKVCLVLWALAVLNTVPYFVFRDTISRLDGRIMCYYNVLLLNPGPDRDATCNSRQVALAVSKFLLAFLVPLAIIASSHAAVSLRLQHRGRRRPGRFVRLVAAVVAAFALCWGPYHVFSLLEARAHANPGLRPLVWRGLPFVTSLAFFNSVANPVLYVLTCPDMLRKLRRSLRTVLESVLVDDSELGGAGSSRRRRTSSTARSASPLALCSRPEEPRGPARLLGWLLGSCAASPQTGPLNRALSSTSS
Assay: Human CRTH2 Receptor Binding Assay (whole cell, [3H]ramatroban competition)
Conditions: CHO-K1 cells expressing human CRTH2 and G-alpha16; 20 nM [3H]ramatroban; 1 hour, room temperature
Text: A whole cell receptor binding assay using [^3H]ramatroban as the competing radioactive ligand was employed to evaluate the compound binding activity to human CRTH2. The radioactive ligand [^3H]ramatroban was synthesized according to Sugimoto et. al. (Eur. J. Pharmacol. 524, 30-37, 2005) to a specific activity of 42 Ci/mmol.
A cell line stably expressing human CRTH2 was established by transfecting CHO-K1 cells with two mammalian expression vectors that harbored human CRTH2 and G-alpha16 cDNAs, respectively, using FuGene® 6 transfection reagent (from Roche). Stable clones expressing CRTH2 were selected by staining each clone with BM16 (BD Pharmingen™ from BD Biosciences, a division of Becton, Dickinson and Company), which is a rat monoclonal antibody to human CRTH2. The cells were maintained as monolayer cultures in Ham's F-12 medium containing 10% fetal bovine serum, 100 units/mL penicillin, 100 μg/mL streptomycin, 2 mM glutamine, 0.5 mg/mL G418 (geneticin) for CRTH2, and 0.2 mg/mL hygromycin-B (for G-alpha 16). For whole cell receptor binding assay, the monolayer cells were rinsed once with PBS (phosphate buffered saline), dissociated using ethylenediaminetetraacetate (Versene™ EDTA Lonza Inc.), and suspended in PBS containing 10 mM MgCl2 and 0.06% BSA (bovine serum albumin) at 1.5×10^6 cells/mL.
The binding reactions (0.2 mL) were performed in 96-well plates at room temperature in PBS containing 1.5×10^5 cells, 10 mM MgCl2, 0.06% BSA, 20 nM [^3H]ramatroban, and test compound at various concentrations. After 1 hour of binding reactions, the cells were harvested on GF™/B filter microplates (microtiter plates with embedded glass fiber from PerkinElmer, Inc.) and washed 5 times with PBS using a Filtermate™ Harvester (a cell harvester that harvests and washes cells from microplates from PerkinElmer, Inc.). The radioactivities bound to the cells were determined using a microplate scintillation counter (TopCount® NXT, from PerkinElmer, Inc.) after adding 50 μL of Microscint™ 20 scintillation fluid (from PerkinElmer, Inc.) to each well of the filter plates. The radioactivity from non-specific binding was determined by replacing compound with 10 μM of 15(R)-15-methyl PGD2 (from Cayman Chemical Company) in the reaction mixtures. The radioactivity bound to the cells in the absence of compound (total binding) was determined by replacing compound with 0.25% of DMSO (dimethyl sulfoxide) in the reaction mixture. Specific binding data were obtained by subtracting the radioactivity of non-specific binding from each binding data.
The IC50 value is defined as the concentration of the tested compound that is required for 50% inhibition of total specific binding. In order to calculate the IC50 value, the percent inhibition data were determined for 7 concentrations for each compound. The percent inhibition for a compound at each concentration was calculated according to the following formula, [1-(specific binding in the presence of compound)/(total specific binding)]x100. The IC50 value was then obtained by fitting the percent inhibition data to a sigmoidal dose-response (4 parameter logistic) model in the XLfit® software Excel add-in program [from ID Business Solutions Ltd., model 205, where F(x)=(A+(B−A)/(1+((C/x)^D)))].

Row | pIC50 | Compound
1 | 8.40 | CN([C@@H]1CCCc2c1cnn2CC(=O)O)S(=O)(=O)c1cnc(Oc2ccc(Cl)cc2)c(Br)c1 [Example 6-1a, ((R)-4-{[5-Bromo-6-(4-chloro-phenoxy)-pyridine-3-sulfonyl]-methyl-amino}-4,5,6,7-tetrahydro-indazol-1-yl)-acetic acid]
2 | 8.18 | CN([C@@H]1CCCc2c1cnn2CC(=O)O)S(=O)(=O)c1cnc(Oc2ccccc2Cl)c(Br)c1 [Example 6-2a, ((R)-4-{[5-Bromo-6-(2-chloro-phenoxy)-pyridine-3-sulfonyl]-methyl-amino}-4,5,6,7-tetrahydro-indazol-1-yl)-acetic acid]
3 | 7.58 | CN([C@@H]1CCCc2c1cnn2CC(=O)O)S(=O)(=O)c1cnc(Oc2cc(Cl)cc(Cl)c2)c(Br)c1 [Example 6-3a, ((R)-4-{[5-Bromo-6-(3,5-dichloro-phenoxy)-pyridine-3-sulfonyl]-methyl-amino}-4,5,6,7-tetrahydro-indazol-1-yl)-acetic acid]
4 | 8.34 | CN([C@@H]1CCCc2c1cnn2CC(=O)O)S(=O)(=O)c1cnc(Oc2ccc(Cl)cc2Cl)c(Br)c1 [Example 6-4a, ((R)-4-{[5-Bromo-6-(2,4-dichloro-phenoxy)-pyridine-3-sulfonyl]-methyl-amino}-4,5,6,7-tetrahydro-indazol-1-yl)-acetic acid]
5 | 8.31 | CN([C@@H]1CCCc2c1cnn2CC(=O)O)S(=O)(=O)c1cnc(Oc2cc(Cl)ccc2Cl)c(Br)c1 [Example 6-5a, ((R)-4-{[5-Bromo-6-(2,5-dichloro-phenoxy)-pyridine-3-sulfonyl]-methyl-amino}-4,5,6,7-tetrahydro-indazol-1-yl)-acetic acid]
6 | 8.17 | CN([C@@H]1CCCc2c1cnn2CC(=O)O)S(=O)(=O)c1cnc(Oc2ccc(F)cc2Cl)c(Br)c1 [Example 6-6a, ((R)-4-{[5-Bromo-6-(2-chloro-4-fluoro-phenoxy)-pyridine-3-sulfonyl]-methyl-amino}-4,5,6,7-tetrahydro-indazol-1-yl)-acetic acid]
7 | 8.21 | CN([C@@H]1CCCc2c1cnn2CC(=O)O)S(=O)(=O)c1cnc(Oc2ccc(F)cc2F)c(Br)c1 [Example 6-7a, ((R)-4-{[5-Bromo-6-(2,4-difluoro-phenoxy)-pyridine-3-sulfonyl]-methyl-amino}-4,5,6,7-tetrahydro-indazol-1-yl)-acetic acid]
8 | 7.92 | CN([C@@H]1CCCc2c1cnn2CC(=O)O)S(=O)(=O)c1cnc(Oc2cccc(Cl)c2)c(Br)c1 [Example 6-8a, ((R)-4-{[5-Bromo-6-(3-chloro-phenoxy)-pyridine-3-sulfonyl]-methyl-amino}-4,5,6,7-tetrahydro-indazol-1-yl)-acetic acid]
9 | 8.15 | CN([C@@H]1CCCc2c1cnn2CC(=O)O)S(=O)(=O)c1cnc(Oc2ccc(Cl)cc2F)c(Br)c1 [Example 6-9a, ((R)-4-{[5-Bromo-6-(4-chloro-2-fluoro-phenoxy)-pyridine-3-sulfonyl]-methyl-amino}-4,5,6,7-tetrahydro-indazol-1-yl)-acetic acid]
10 | 7.73 | CN([C@@H]1CCCc2c1cnn2CC(=O)O)S(=O)(=O)c1cnc(Oc2ccc(Cl)c(F)c2)c(Br)c1 [Example 6-10a, ((R)-4-{[5-Bromo-6-(4-chloro-3-fluoro-phenoxy)-pyridine-3-sulfonyl]-methyl-amino}-4,5,6,7-tetrahydro-indazol-1-yl)-acetic acid]

Continued, compound first:

Row | Compound | pIC50
11 | O=C(O)Cn1ncc2c1CCC[C@H]2NS(=O)(=O)c1cnc(Oc2ccc(Cl)cc2)c(Br)c1 [Example 2-8a, {(R)-4-[5-Bromo-6-(4-chloro-phenoxy)-pyridine-3-sulfonylamino]-4,5,6,7-tetrahydro-indazol-1-yl}-acetic acid] | 8.11
12 | O=C(O)Cn1ncc2c1CCC[C@H]2NS(=O)(=O)c1cnc(Oc2ccccc2Cl)c(Br)c1 [Example 2-9a, {(R)-4-[5-Bromo-6-(2-chloro-phenoxy)-pyridine-3-sulfonylamino]-4,5,6,7-tetrahydro-indazol-1-yl}-acetic acid] | 8.08
13 | O=C(O)Cn1ncc2c1CCCC2NS(=O)(=O)c1cnc(Oc2ccc(F)c(F)c2)c(Br)c1 (stereo not drawn) [Example 2-10a, {4-[5-Bromo-6-(3,4-difluoro-phenoxy)-pyridine-3-sulfonylamino]-4,5,6,7-tetrahydro-indazol-1-yl}-acetic acid] | 6.71
14 | O=C(O)CCn1ncc2c1CCC[C@H]2NS(=O)(=O)c1cnc(Oc2ccccc2Cl)c(Br)c1 [Example 2-11a, 3-{(R)-4-[5-Bromo-6-(2-chloro-phenoxy)-pyridine-3-sulfonylamino]-4,5,6,7-tetrahydro-indazol-1-yl}-propionic acid] | 7.74
15 | O=C(O)CCn1ncc2c1CCC[C@H]2NS(=O)(=O)c1cnc(Oc2ccc(Cl)cc2)c(Br)c1 [Example 2-12a, 3-{(R)-4-[5-Bromo-6-(4-chloro-phenoxy)-pyridine-3-sulfonylamino]-4,5,6,7-tetrahydro-indazol-1-yl}-propionic acid] | 7.52
16 | Cc1cc(S(=O)(=O)NC2CCCc3c2cnn3CC(=O)O)cnc1Oc1ccc(Cl)cc1 (stereo not drawn) [Example 3-1a, {4-[6-(4-Chloro-phenoxy)-5-methyl-pyridine-3-sulfonylamino]-4,5,6,7-tetrahydro-indazol-1-yl}-acetic acid] | 7.46
17 | O=C(O)Cn1ncc2c1CCCC2NS(=O)(=O)c1ccc(Oc2ccc(F)cc2)nc1 (stereo not drawn) [Example 4-1a, {4-[6-(4-Fluoro-phenoxy)-pyridine-3-sulfonylamino]-4,5,6,7-tetrahydro-indazol-1-yl}-acetic acid] | 6.80
18 | O=C(O)Cn1ncc2c1CCC[C@H]2NS(=O)(=O)c1ccc(Oc2ccccc2Cl)c(Cl)c1 [Example 5-1a, {(R)-4-[3-Chloro-4-[2-chloro-phenoxy)-benzenesulfonylamino]-4,5,6,7-tetrahydro-indazol-1-yl}-acetic acid] | 7.84
19 | O=C(O)Cn1ncc2c1CCCC2NS(=O)(=O)c1ccc(Oc2cccc(Cl)c2)cc1 (stereo not drawn) [Example 5-2a, {4-[4-(3-Chloro-phenoxy)-benzenesulfonylamino]-4,5,6,7-tetrahydro-indazol-1-yl}-acetic acid] | 6.69
20 | O=C(O)Cn1ncc2c1CCCC2NS(=O)(=O)c1ccc(Oc2ccc(Cl)cc2)cc1 (stereo not drawn) [Example 5-3a, {4-[4-(4-Chloro-phenoxy)-benzenesulfonylamino]-4,5,6,7-tetrahydro-indazol-1-yl}-acetic acid] | 7.22
21 | O=C(O)Cn1ncc2c1CCCC2NS(=O)(=O)c1cc(Oc2ccccc2)cc(C(F)(F)F)c1 (stereo not drawn) [Example 5-4a, [4-(3-Phenoxy-5-trifluoromethyl-benzenesulfonylamino)-4,5,6,7-tetrahydro-indazol-1-yl]-acetic acid] | 7.44
22 | O=C(O)Cn1ncc2c1CCC[C@H]2NS(=O)(=O)c1ccc(Oc2ccccc2Cl)cc1Cl [Example 5-5a, {(R)-4-[2-Chloro-4-(2-chloro-phenoxy)-benzenesulfonylamino]-4,5,6,7-tetrahydro-indazol-1-yl}-acetic acid] | 8.16
23 | O=C(O)Cn1ncc2c1CCC[C@H]2NS(=O)(=O)c1cc(F)c(Oc2ccc(F)cc2)cc1Cl [Example 5-6a, {(R)-4-[2-Chloro-5-fluoro-4-(4-fluoro-phenoxy)-benzenesulfonylamino]-4,5,6,7-tetrahydro-indazol-1-yl}-acetic acid] | 7.28
24 | O=C(O)CCn1ncc2c1CCC[C@H]2NS(=O)(=O)c1ccc(Oc2ccccc2Cl)c(Cl)c1 [Example 5-7a, 3-{(R)-4-[3-Chloro-4-(2-chloro-phenoxy)-benzenesulfonylamino]-4,5,6,7-tetrahydro-indazol-1-yl}-propionic acid] | 7.28
